The record followed here is patent US7858644B2, “EP4 receptor antagonists” (Asterand UK Limited, priority 2003, dated 2010).

Experiment [1] concerns the target T1, human EP2 receptor (Homo sapiens, UniProt P43116).
T1 construct: expressed in transfected cells
As to the kind of experiment: Binding ability to human EP2 receptor ([3H]PGE2 displacement). As to conditions: read-out: pKi EP2 (converted). Here is the method: (§1) Membranes were prepared from cells stably transfected with human EP receptor cDNA. In brief, cells were cultured to confluency, scraped from culture flasks, and centrifuged (800 g, 8 minutes, 4° C.). Cells were twice washed in ice cold homogenisation buffer containing 10 mMTris-HCl, 1 mM EDTA. 2Na, 250 mM sucrose, 1 mM PMSF, 0.3 mM indomethacin, pH 7.4, homogenised and re-centrifuged as before. The supernatant was stored on ice and pellets re-homogenised and re-spun. Supernatants were pooled and centrifuged at 40000 g, 10 minutes, 4° C. Resultant membrane pellets were stored at −80° C. until use.
(§2) For assay, membranes expressing human EP4, EP3, EP2 or EP1 receptors were incubated in Millipore (MHVBN45) plates containing assay buffer, radiolabelled [^3H]PGE2 and 0.1 to 10 000 nM concentrations of compounds. Incubations were performed at suitable temperatures and for suitable times to allow equilibrium to be reached. Non-specific binding was determined in the presence of 10 uM PGE2. Bound and free radiolabel was separated by vacuum manifold filtration using appropriate wash buffers, and bound radiolabel was determined by scintillation counting. Constituents of each of the buffers are included in table 1 below.
(§3) This approach follows that set out in Kenakin, T. P., Pharmacologic analysis of drug receptor interaction. Raven Press, New York, 2nd edition.

For experiment [2], the target named is T2, human EP3 receptor (Homo sapiens, UniProt P43115).
T2 construct: expressed in transfected cells
T2 sequence (P43115 1-390): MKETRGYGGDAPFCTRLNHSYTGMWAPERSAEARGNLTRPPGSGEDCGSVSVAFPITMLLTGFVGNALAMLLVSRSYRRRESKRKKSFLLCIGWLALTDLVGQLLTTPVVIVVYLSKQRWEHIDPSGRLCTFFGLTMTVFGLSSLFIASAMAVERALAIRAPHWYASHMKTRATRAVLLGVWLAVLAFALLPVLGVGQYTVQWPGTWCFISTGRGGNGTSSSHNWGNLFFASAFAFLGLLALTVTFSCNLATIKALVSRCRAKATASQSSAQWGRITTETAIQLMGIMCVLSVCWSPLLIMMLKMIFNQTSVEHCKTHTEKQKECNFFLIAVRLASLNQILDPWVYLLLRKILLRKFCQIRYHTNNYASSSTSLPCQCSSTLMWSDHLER
As to the kind of experiment: Binding ability to human EP3 receptor ([3H]PGE2 displacement). To be noted: membranes from cells stably transfected with human EP receptor cDNA; [3H]PGE2 2.5 nM; Cheng-Prusoff from IC50; read-out: pKi EP3 (converted). On the procedure: as §1, §2, §3

Structures are written as SMILES. Where a name gives a salt, the structure may show the parent alone. A value given as a limit tells only on which side of the number the result lay.

T1 sequence (P43116 whole entry): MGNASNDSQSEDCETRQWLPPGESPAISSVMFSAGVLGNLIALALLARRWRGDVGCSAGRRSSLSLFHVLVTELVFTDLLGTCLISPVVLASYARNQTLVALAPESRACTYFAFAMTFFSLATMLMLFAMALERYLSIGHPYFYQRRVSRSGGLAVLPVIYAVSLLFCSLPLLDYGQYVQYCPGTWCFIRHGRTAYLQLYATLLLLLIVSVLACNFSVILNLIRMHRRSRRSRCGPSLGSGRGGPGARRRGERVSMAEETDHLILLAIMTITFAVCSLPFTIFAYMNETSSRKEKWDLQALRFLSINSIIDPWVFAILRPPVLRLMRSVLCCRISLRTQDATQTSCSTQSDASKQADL

For the molecule `COc1ccc(-c2ccc(OCc3cc(C(=O)O)oc3C)cc2)cc1` [Compound 4, 4-(4′-Methoxy-biphenyl-4-yloxymethyl)-5-methyl-furan-2-carboxylic acid], the Ki in experiment [1] and in experiment [2] was > 10 µM throughout.
In the case of `COc1ccc(-c2ccc(OCc3cc(C(=O)NS(=O)(=O)c4ccccc4)oc3C)cc2)cc1` [Compound 5, N-[4-(4′-Methoxy-biphenyl-4-yloxymethyl)-5-methyl-furan-2-carbonyl]-benzenesulfonamide], the Ki in experiment [1] is > 3.16 µM; in experiment [2], > 10 µM.
The matching figures for `COc1ccc(-c2ccc(OCc3cc(C(=O)NS(=O)(=O)Cc4ccccc4)oc3C)cc2)cc1` [Compound 6, N-[4-(4′-Methoxy-biphenyl-4-yloxymethyl)-5-methyl-furan-2-carbonyl]-C-phenyl-methanesulfonamide]: > 10 µM and > 10 µM.
The matching figures for `COc1ccc(-c2ccc(OCc3cc(C(=O)NS(C)(=O)=O)oc3C)cc2)cc1` [Compound 7, N-[4-(4′-Methoxy-biphenyl-4-yloxymethyl)-5-methyl-furan-2-carbonyl]-methanesulfonamide]: > 10 µM and > 10 µM.
The matching figures for `CCCS(=O)(=O)NC(=O)c1cc(COc2ccc(-c3ccc(OC)cc3)cc2)c(C)o1` [Compound 8, Propane-1-sulfonic acid [4-(4′-methoxy-biphenyl-4-yloxymethyl)-5-methyl-furan-2-carbonyl]-amide]: > 10 µM and > 10 µM.
`COc1ccc(-c2ccc(OCc3cc(C(=O)NS(=O)(=O)c4c(C)noc4C)oc3C)cc2)cc1` [Compound 9, 3,5-Dimethyl-isoxazole-4-sulfonic acid [4-(4′-methoxy-biphenyl-4-yloxymethyl)-5-methyl-furan-2-carbonyl]-amide]: the Ki in experiment [1] and in experiment [2] was > 10 µM throughout.
As for `COc1ccc(-c2ccc(OCc3cc(C(=O)NS(=O)(=O)c4cccs4)oc3C)cc2)cc1` [Compound 10, Thiophene-2-sulfonic acid [4-(4′-methoxy-biphenyl-4-yloxymethyl)-5-methyl-furan-2-carbonyl]-amide], the results for the Ki in experiment [1] and in experiment [2] were > 3.16 µM and > 10 µM, respectively.
The matching figures for `COc1ccc(-c2ccc(OCc3cc(C(=O)NS(=O)(=O)c4ccc(C)cn4)oc3C)cc2)cc1` [Compound 11, 5-Methyl-pyridyl-2-sulfonic acid [4-(4′-methoxy-biphenyl-4-yloxymethyl)-5-methyl-furan-2-carbonyl]-amide]: > 10 µM and > 10 µM.
Consider `COc1ccc(-c2ccc(OCc3cc(C(=O)NS(=O)(=O)c4ccc(CN)cc4)oc3C)cc2)cc1` [Compound 12, 4-Aminomethyl-N-[4-(4′-methoxy-biphenyl-4-yloxymethyl)-5-methyl-furan-2-carbonyl]-benzenesulfonamide trifluoroacetate], for which the Ki in experiment [1] and in experiment [2] was > 10 µM in each case.
Regarding `COc1ccc(-c2ccc(OCc3cc(C(=O)NS(=O)(=O)c4ccc(O)cc4)oc3C)cc2)cc1` [Compound 13, 4-Hydroxy-N-[4-(4′-methoxy-biphenyl-4-yloxymethyl)-5-methyl-furan-2-carbonyl]-benzenesulfonamide], the Ki in experiment [1] and in experiment [2] was > 10 µM in each case.
In the case of `Cc1oc(C(=O)NS(=O)(=O)c2ccccc2)cc1COc1ccc(-c2ccccc2)cc1` [Compound 19, N-[4-(Biphenyl-4-yloxymethyl)-5-methyl-furan-2-carbonyl]-benzenesulfonamide], the Ki in experiment [1] and in experiment [2] was > 10 µM in each case.
With `CC(=O)c1ccc(-c2ccc(OCc3cc(C(=O)O)oc3C)cc2)cc1` [Compound 21, 4-(4′-Acetyl-biphenyl-4-yloxymethyl)-5-methyl-furan-2-carboxylic acid], the Ki in experiment [1] and in experiment [2] was > 10 µM each time.
Take `CC(=O)c1ccc(-c2ccc(OCc3cc(C(=O)NS(=O)(=O)c4ccccc4)oc3C)cc2)cc1` [Compound 22, N-[4-(4′-Acetyl-biphenyl-4-yloxymethyl)-5-methyl-furan-2-carbonyl]-benzenesulfonamide]: the Ki in experiment [1] and in experiment [2] was > 10 µM each time.
For `Cc1oc(C(=O)O)cc1COc1ccc(-c2ccc(Cl)cc2)cc1` [Compound 27, 4-(4′-Chloro-biphenyl-4-yloxymethyl)-5-methyl-furan-2-carboxylic acid], the Ki in experiment [1] is > 3.16 µM; in experiment [2] it was > 10 µM.
The corresponding values for `Cc1oc(C(=O)O)cc1COc1ccc(-c2ccc3c(c2)OCO3)cc1` [Compound 28, 4-(4-Benzo[1,3]dioxol-5-yl-phenoxymethyl)-5-methyl-furan-2-carboxylic acid] are > 10 µM and > 10 µM.
On to `Cc1oc(CCC(=O)O)cc1COc1ccc(-c2ccccc2)cc1` [Compound 37, 3-[4-(Biphenyl-4-yloxymethyl)-5-methyl-furan-2-yl]-propionic acid], for which the Ki in experiment [1] and in experiment [2] was > 10 µM in each case.
`COc1ccc(-c2ccc(OCc3cc(C(=O)O)oc3C)cc2)nc1` [Compound 53, 4-[4-(5-Methoxy-pyridin-2-yl)-phenoxymethyl]-5-methyl-furan-2-carboxylic acid]: the Ki in experiment [1] and in experiment [2] was > 10 µM each time.
For `Cc1oc(C(=O)O)cc1COc1ccc(-c2ccc(C#N)cc2)cc1` [Compound 57, 4-(4′-Cyano-biphenyl-4-yloxymethyl)-5-methyl-furan-2-carboxylic acid], the Ki in experiment [1] and in experiment [2] was > 10 µM in each case.
Consider `COc1ccc(-c2ccc(OCc3cc(C(=O)NS(=O)(=O)CCCN4CCOCC4)oc3C)cc2)cc1` [Compound 59, 3-Morpholin-4-yl-propane-1-sulphonic acid [4-(4′-methoxy-biphenyl-4-yloxymethyl)-5-methyl-furan-2-carbonyl]-amide], for which the Ki in experiment [1] and in experiment [2] was > 10 µM each time.
Regarding `Cc1oc(C(=O)O)cc1CCOc1ccc(-c2ccccc2)cc1` [Compound 72, 4-[2-(Biphenyl-4-yloxy)-ethyl]-5-methyl-furan-2-carboxylic acid], the Ki in experiment [1] and in experiment [2] was > 10 µM in each case.
Consider `O=C(O)c1cc(COc2ccc(-c3ccccc3)cc2)co1` [Compound 77, 4-(Biphenyl-4-yloxymethyl)-furan-2-carboxylic acid], for which the Ki in experiment [1] and in experiment [2] was > 10 µM in each case.
Turning to `CC(C)c1oc(C(=O)O)cc1COc1ccc(-c2ccccc2)cc1` [Compound 85, 4-(Biphenyl-4-yloxymethyl)-5-isopropyl-furan-2-carboxylic acid], the Ki in experiment [1] and in experiment [2] was > 10 µM throughout.
Take `O=C(O)c1cc(COc2ccc(-c3ccccc3)cc2)c(C(F)(F)F)o1` [Compound 90, 4-(Biphenyl-4-yloxymethyl)-5-trifluoromethyl-furan-2-carboxylic acid]: the Ki in experiment [1] and in experiment [2] was > 10 µM in each case.
Take `COc1ccc(-c2ccc(OCc3cc(C(=O)O)oc3C)cc2)cc1OC` [Compound 96, 4-(3′,4′-Dimethoxy-biphenyl-4-yloxymethyl)-5-methyl-furan-2-carboxylic acid]: the Ki in experiment [1] and in experiment [2] was > 10 µM each time.
For `Cc1oc(C(=O)O)cc1COc1ccc(-c2ccc(CO)cc2)cc1` [Compound 110, 4-(4′-Hydroxymethyl-biphenyl-4-yloxymethyl)-5-methyl-furan-2-carboxylic acid], the Ki in experiment [1] and in experiment [2] was > 10 µM each time.
`Cc1oc(C(=O)O)cc1COc1ccc(-c2ccc(OC(F)(F)F)cc2)cc1` [Compound 114, 5-Methyl-4-(4′-trifluoromethoxy-biphenyl-4-yloxymethyl)-furan-2-carboxylic acid]: the Ki in experiment [1] and in experiment [2] was > 10 µM throughout.
As for `COc1cccc(-c2ccc(OCc3cc(C(=O)O)oc3C)cc2)c1` [Compound 116, 4-(3′-Methoxy-biphenyl-4-yloxymethyl)-5-methyl-furan-2-carboxylic acid], the Ki in experiment [1] and in experiment [2] was > 10 µM each time.
`COc1ccc(-c2ccc(OCc3cc(C(=O)NS(=O)(=O)N(C)C)oc3C)cc2)cc1` [Compound 122, N-[4-(4′-Methoxy-biphenyl-4-yloxymethyl)-5-methyl-furan-2-carbonyl]-dimethylamino-sulphonamide]: the Ki in experiment [1] and in experiment [2] was > 10 µM each time.
On to `COc1ccccc1-c1ccc(OCc2cc(C(=O)O)oc2C)cc1` [Compound 126, 4-(2′-Methoxy-biphenyl-4-yloxymethyl)-5-methyl-furan-2-carboxylic acid], for which the Ki in experiment [1] and in experiment [2] was > 10 µM in each case.
